From paper PMC7153937, “Imipridone Anticancer Compounds Ectopically Activate the ClpP Protease and Represent a New Scaffold for Antibiotic Development” (Genetics, 2020) come the findings set out here.

The assay has as its target T1, S. aureus ClpP (Staphylococcus aureus, UniProt Q2G036).
T1 construct: S. aureus ClpP expressed from the GAL1 promoter in S. cerevisiae
Nature of the assay: yeast surrogate genetic assay: ClpP-dependent growth inhibition vs. empty vector. The assay is classed as cell-based.

T1 sequence (Q2G036 whole entry): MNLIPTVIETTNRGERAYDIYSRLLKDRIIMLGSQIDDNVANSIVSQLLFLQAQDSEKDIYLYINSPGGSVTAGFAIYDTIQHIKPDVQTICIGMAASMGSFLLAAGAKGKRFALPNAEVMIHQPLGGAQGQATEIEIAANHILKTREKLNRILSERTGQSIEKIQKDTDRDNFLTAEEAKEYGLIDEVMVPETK

As to `O=C1C2=C(CCN(Cc3ccccc3)C2)N2CCN=C2N1Cc1ccc(C(F)(F)F)cc1` [ONC212], the concentration for half-maximal inhibition (IC50) stood at 5.4 µM.

The term IC50 denotes the concentration that gives 50% inhibition. A lower IC50 goes with greater potency in that assay.
